Values after ≈ are worked out from the molar mass of the structure shown. Like-named read-outs stand apart in the source and are kept apart here.
Key:
Assay in all cases: MIC (Table II)
Assay type in all cases: cell-based
[1] = test system: Salmonella brandebourg 550; conditions: read-out: minimum inhibition concentration
Description: (§1) The antibiotic activity was determined by the diffusion method in a gelose medium at a pH of 7. The following Table expresses the minimum concentration of inhibition in mcg/ml (CMl) for the products against different microbial strains.
(§2) Using the same procedure as in Table I, the minimum inhibition concentration in mcg/ml was determined against different microbial strains with L(-) cis 7-[D(-)-α-aminophenylacetamido]-3-isopropyl-3-cepheme-4-carboxylic acid (product A) of Example 9.

[2] = test system: Staphylococcus aureus 8514; conditions: read-out: minimum inhibition concentration
Description: as §1, §2

[3] = test system: Staphylococcus aureus 54146; conditions: read-out: minimum inhibition concentration
Description: as §1, §2

[4] = test system: Staphylococcus aureus 9561; conditions: read-out: minimum inhibition concentration
Description: as §1, §2

[5] = test system: Staphylococcus aureus 4546; conditions: Staphylococcus aureus, 4546, read-out: minimum inhibition concentration
Description: as §1, §2

[6] = test system: Staphylococcus aureus 980; conditions: 24h, read-out: minimum inhibition concentration
Description: as §1, §2

Escherichia coli Taylor = conditions: read-out: minimum inhibition concentration
Description: as §1, §2

Escherichia coli 5369 = conditions: read-out: minimum inhibition concentration
Description: as §1, §2

Proteus mirabilis 8065 = conditions: read-out: minimum inhibition concentration
Description: as §1, §2

[7] = test system: Streptococcus hemolyticus 561; conditions: Streptococcus pyogenes, read-out: minimum inhibition concentration
Description: as §1, §2

Shigella flexneri = conditions: read-out: minimum inhibition concentration
Description: as §1, §2

[8] = test system: Staphylococcus aureus 9373; conditions: Staphylococcus aureus, 9373, read-out: minimum inhibition concentration
Description: as §1, §2

Proteus mirabilis 3113 = conditions: read-out: minimum inhibition concentration
Description: as §1, §2

Escherichia coli 9927 = conditions: read-out: minimum inhibition concentration
Description: as §1, §2

[9] = test system: Streptococcus hemolyticus 920; conditions: Streptococcus pyogenes, read-out: minimum inhibition concentration
Description: as §1, §2

Escherichia coli 152 = conditions: read-out: minimum inhibition concentration
Description: as §1, §2

Escherichia coli 5524 = conditions: read-out: minimum inhibition concentration
Description: as §1, §2

[10] = test system: Staphylococcus aureus 1098; conditions: read-out: minimum inhibition concentration
Description: as §1, §2

Escherichia coli 9957 = conditions: read-out: minimum inhibition concentration
Description: as §1, §2

[11] = test system: Staphylococcus aureus 889; conditions: Staphylococcus aureus, 889, read-out: minimum inhibition concentration
Description: as §1, §2

[12] = test system: Staphylococcus aureus 9729; conditions: Staphylococcus aureus, 9729, read-out: minimum inhibition concentration
Description: as §1, §2

Shigella sonnei = conditions: read-out: minimum inhibition concentration
Description: as §1, §2

Escherichia coli 51 = conditions: read-out: minimum inhibition concentration
Description: as §1, §2

[13] = test system: Staphylococcus aureus 5880; conditions: read-out: minimum inhibition concentration
Description: as §1, §2

Escherichia coli 5003 = conditions: read-out: minimum inhibition concentration
Description: as §1, §2

Escherichia coli 1751 = conditions: read-out: minimum inhibition concentration
Description: as §1, §2

[14] = test system: Diplococcus pneumoniae 735; conditions: Streptococcus pneumoniae, read-out: minimum inhibition concentration
Description: as §1, §2

Escherichia coli 070 = conditions: read-out: minimum inhibition concentration
Description: as §1, §2

Proteus mirabilis 1668 = conditions: read-out: minimum inhibition concentration
Description: as §1, §2

[15] = test system: Staphylococcus aureus Frottis nasal; conditions: read-out: minimum inhibition concentration
Description: as §1, §2

[16] = test system: Klebsiella pneumoniae 52145; conditions: read-out: minimum inhibition concentration
Description: as §1, §2

[17] = test system: Staphylococcus aureus 9482; conditions: Staphylococcus aureus, 9482, read-out: minimum inhibition concentration
Description: as §1, §2

## CC(C)C1=C(C(=O)O)N2C(=O)[C@@H](NC(=O)[C@H](N)c3ccccc3)[C@H]2SC1 [Example 9, L (+) cis 7-[D (-)-α-aminophenylacetamido]-3-isopropyl-3-cepheme-4-carboxylic acid]
[1]; 24h
  MIC: 30 µg/mL (≈ 79.9 µM)
[1]; 48h
  MIC: 30 µg/mL (≈ 79.9 µM)
[1]; 72h
  MIC: 40 µg/mL (≈ 107 µM)
[2]; 24h
  MIC: 1 µg/mL (≈ 2.66 µM)
[2]; 48h
  MIC: 2 µg/mL (≈ 5.33 µM)
[2]; 72h
  MIC: 2 µg/mL (≈ 5.33 µM)
[3]; 24h
  MIC: 1 µg/mL (≈ 2.66 µM)
[3]; 48h
  MIC: 1 µg/mL (≈ 2.66 µM)
[3]; 72h
  MIC: 2 µg/mL (≈ 5.33 µM)
[4]; 24h
  MIC: 1 µg/mL (≈ 2.66 µM)
[4]; 48h
  MIC: 3 µg/mL (≈ 7.99 µM)
[4]; 72h
  MIC: 10 µg/mL (≈ 26.6 µM)
[5]; 24h
  MIC: 0.6 µg/mL (≈ 1.6 µM)
[5]; 48h
  MIC: 2 µg/mL (≈ 5.33 µM)
[5]; 72h
  MIC: 3 µg/mL (≈ 7.99 µM)
[6]
  MIC: > 40 µg/mL
Escherichia coli Taylor; 24h
  MIC: 40 µg/mL (≈ 107 µM)
Escherichia coli Taylor; 48h
  MIC: 40 µg/mL (≈ 107 µM)
Escherichia coli Taylor; 72h
  MIC: 60 µg/mL (≈ 160 µM)
Escherichia coli 5369; 24h
  MIC: 30 µg/mL (≈ 79.9 µM)
Escherichia coli 5369; 48h
  MIC: 40 µg/mL (≈ 107 µM)
Escherichia coli 5369; 72h
  MIC: 100 µg/mL (≈ 266 µM)
Proteus mirabilis 8065; 24h
  MIC: 60 µg/mL (≈ 160 µM)
Proteus mirabilis 8065; 48h
  MIC: > 100 µg/mL
[7]; 24h
  MIC: 0.6 µg/mL (≈ 1.6 µM)
[7]; 48h
  MIC: > 40 µg/mL
Shigella flexneri; 24h
  MIC: 20 µg/mL (≈ 53.3 µM)
Shigella flexneri; 48h
  MIC: 40 µg/mL (≈ 107 µM)
Shigella flexneri; 72h
  MIC: 40 µg/mL (≈ 107 µM)
[8]; 24h
  MIC: 1 µg/mL (≈ 2.66 µM)
[8]; 48h
  MIC: 3 µg/mL (≈ 7.99 µM)
[8]; 72h
  MIC: 5 µg/mL (≈ 13.3 µM)
Proteus mirabilis 3113; 24h
  MIC: 100 µg/mL (≈ 266 µM)
Proteus mirabilis 3113; 48h
  MIC: > 100 µg/mL
Escherichia coli 9927; 24h
  MIC: 100 µg/mL (≈ 266 µM)
Escherichia coli 9927; 48h
  MIC: > 100 µg/mL
[9]; 24h
  MIC: 2 µg/mL (≈ 5.33 µM)
[9]; 48h
  MIC: 2 µg/mL (≈ 5.33 µM)
[9]; 72h
  MIC: 3 µg/mL (≈ 7.99 µM)
Escherichia coli 152; 24h
  MIC: 30 µg/mL (≈ 79.9 µM)
Escherichia coli 152; 48h
  MIC: 30 µg/mL (≈ 79.9 µM)
Escherichia coli 152; 72h
  MIC: 40 µg/mL (≈ 107 µM)
Escherichia coli 5524; 24h
  MIC: 60 µg/mL (≈ 160 µM)
Escherichia coli 5524; 48h
  MIC: 60 µg/mL (≈ 160 µM)
Escherichia coli 5524; 72h
  MIC: 60 µg/mL (≈ 160 µM)
[10]; 24h
  MIC: 0.4 µg/mL (≈ 1.07 µM)
[10]; 48h
  MIC: 1 µg/mL (≈ 2.66 µM)
[10]; 72h
  MIC: 3 µg/mL (≈ 7.99 µM)
Escherichia coli 9957; 24h
  MIC: 40 µg/mL (≈ 107 µM)
Escherichia coli 9957; 48h
  MIC: 100 µg/mL (≈ 266 µM)
Escherichia coli 9957; 72h
  MIC: 100 µg/mL (≈ 266 µM)
[11]; 24h
  MIC: 5 µg/mL (≈ 13.3 µM)
[11]; 48h
  MIC: 10 µg/mL (≈ 26.6 µM)
[11]; 72h
  MIC: 20 µg/mL (≈ 53.3 µM)
[12]; 24h
  MIC: 2 µg/mL (≈ 5.33 µM)
[12]; 48h
  MIC: 2 µg/mL (≈ 5.33 µM)
[12]; 72h
  MIC: 5 µg/mL (≈ 13.3 µM)
Shigella sonnei; 24h
  MIC: 30 µg/mL (≈ 79.9 µM)
Shigella sonnei; 48h
  MIC: 30 µg/mL (≈ 79.9 µM)
Shigella sonnei; 72h
  MIC: 30 µg/mL (≈ 79.9 µM)
Escherichia coli 51; 24h
  MIC: 100 µg/mL (≈ 266 µM)
Escherichia coli 51; 48h
  MIC: > 100 µg/mL
[13]; 24h
  MIC: 2 µg/mL (≈ 5.33 µM)
[13]; 48h
  MIC: 3 µg/mL (≈ 7.99 µM)
[13]; 72h
  MIC: 10 µg/mL (≈ 26.6 µM)
Escherichia coli 5003; 24h
  MIC: 40 µg/mL (≈ 107 µM)
Escherichia coli 5003; 48h
  MIC: 40 µg/mL (≈ 107 µM)
Escherichia coli 5003; 72h
  MIC: 40 µg/mL (≈ 107 µM)
Escherichia coli 1751; 24h
  MIC: 30 µg/mL (≈ 79.9 µM)
Escherichia coli 1751; 48h
  MIC: 30 µg/mL (≈ 79.9 µM)
Escherichia coli 1751; 72h
  MIC: 30 µg/mL (≈ 79.9 µM)
[14]; 24h
  MIC: 0.4 µg/mL (≈ 1.07 µM)
[14]; 48h
  MIC: 1 µg/mL (≈ 2.66 µM)
[14]; 72h
  MIC: 1 µg/mL (≈ 2.66 µM)
Escherichia coli 070; 24h
  MIC: 40 µg/mL (≈ 107 µM)
Escherichia coli 070; 48h
  MIC: 40 µg/mL (≈ 107 µM)
Escherichia coli 070; 72h
  MIC: 40 µg/mL (≈ 107 µM)
Proteus mirabilis 1668; 24h
  MIC: 100 µg/mL (≈ 266 µM)
Proteus mirabilis 1668; 48h
  MIC: > 100 µg/mL
[15]; 24h
  MIC: 2 µg/mL (≈ 5.33 µM)
[15]; 48h
  MIC: 3 µg/mL (≈ 7.99 µM)
[15]; 72h
  MIC: 10 µg/mL (≈ 26.6 µM)
[16]; 24h
  MIC: 30 µg/mL (≈ 79.9 µM)
[16]; 48h
  MIC: 60 µg/mL (≈ 160 µM)
[16]; 72h
  MIC: > 100 µg/mL
[17]; 24h
  MIC: 1 µg/mL (≈ 2.66 µM)
[17]; 48h
  MIC: 2 µg/mL (≈ 5.33 µM)
[17]; 72h
  MIC: 2 µg/mL (≈ 5.33 µM)
